According to article PMC10395789, “Impacts of some metal ions on glutathione s-transferase in the liver of Chalcalburnus tarichi: an endemic species of Lake Van” (Turkish Journal of Chemistry, 2022):
Several values for one entry are separate records, joined by “and”; a condition that tells them apart may be missing. Identical values can stand only once.

What was measured:
[1] = test system: GST in the liver of Bonito; design: method as in Güller et al. 43; settings: ref Güller et al. 43; cited from earlier work
[2] = test system: GST from Lake Van fish gills; design: method as in PMID 25856719; settings: Lake Van fish gill GST; cited from earlier work
[3] = test system: C. tarichi Pallas liver GST; assay: In vitro inhibition effect of metals on GST enzyme activity; format: biochemical, Chalcalburnus tarichi Pallas; settings: for Inhibition type / Ki: GSH substrate, Lineweaver–Burk plots; for IC50: purified liver GST, from Activity (%)–[metal ion] plots; for Ki: three metal concentrations, mean ± standard error of the mean
Protocol: C. tarichi Pallas fish were obtained from Van Lake basin. The liver samples of C. tarichi Pallas were immediately removed and preserved for experimental studies according to the cold chain principles. The livers were sliced into small pieces and successfully lysed by a homogenizer in 50 mM Tris/HCl buffer (pH 7.2) containing 1 mM DTT, 1 mM PMSF and 1 mM EDTA. Homogenate was centrifuged twice at 4 °C and 20,000 × g for 60 min. The supernatant was used in subsequent analyses. For GST purification, we followed the procedure described in our previous study.
(§1) GST activity was measured with the method in our previous study using CDNB as the model substrate.
IC50 was defined as the concentration of the compound causing 50% inhibition, and it was calculated based on Activity (%)–[metal ion] plots for each metal. The Ki values and inhibition types were found using Lineweaver–Burk plots. For the Ki study, we selected 3 inhibitor concentrations and made activity measurements relative to the control values, and then we calculated 1 / S and 1 / V values and plotted Ki plots. Analysis of the data and drawing of graphs were realized using GraphPad Prism ver. 8 for Mac (GraphPad Software, La Jolla California USA). […] Differences between data sets were considered statistically significant when the p-value was less than 0.05.

[4] = test system: GST from turkey livers; design: method as in PMID 22989768; settings: turkey liver GST; cited from earlier work
[5] = test system: GST from muscle tissue; design: method as in Aksoy et al. 15; settings: ref Aksoy et al. 15; cited from earlier work
[6] = test system: C. tarichi Pallas liver GST; assay: Kinetic analysis (Km, Vmax, Lineweaver–Burk plot) of liver GST with GSH and CDNB as cosubstrates; format: biochemical, Chalcalburnus tarichi Pallas; settings: substrate of liver GST
Protocol: as §1
Bradford procedure was used for protein quantity. The optimal pH and ionic strength were determined based on the activity of the pure enzyme described in a previous study. The effects of temperature on GST activity were made spectrophotometrically at temperatures ranging from 0 to 80 °C as described in a previous study. Stable pH ranges were 5.5–8.0 and 7.0–9.0. The enzyme solution was mixed with the buffers at the corresponding pH values. The activities were assayed at every 24 h for 4 days. Different concentrations of GSH and CDNB were used as substrates to determine the Vmax and Km values of the GST enzyme. Vmax and Km values were determined based on the Lineweaver–Burk plot.

Compound	Effect on GST enzyme activity [1]	Inhibition type [3]	IC50 [3]	other results
[Cr+2] [Cr^2+]	did not show any impact	–	–	–
[Ag+] [Ag^+]	showed inhibitory effects	Noncompetitive	0.21 µM	Inhibitory effect among the studied metal ions [2]: best inhibitory effect; Inhibitory effect among the studied metal ions ([3]; compared with Cu2+, Cd2+, Co2+): best inhibitory effect; Inhibitory effect on enzyme activity [4]: potent inhibitory effect; Inhibitory effect among all studied metal ions [5]: best inhibitor
[Cd+2] [Cd^2+]	showed inhibitory effects	Competitive	235 µM	Ki [3]: 117 ± 31 µM
N[C@@H](CCC(=O)N[C@@H](CS)C(=O)NCC(=O)O)C(=O)O [GSH]	–	–	–	Km [6]: 60 µM; Vmax [6]: 0.562 EU/mL and 0.56 EU/mL
O=[N+]([O-])c1ccc(Cl)c([N+](=O)[O-])c1 [CDNB]	–	–	–	Km [6]: 890 µM; Vmax [6]: 1.245 EU/mL and 1.25 EU/mL
[Cu+2] [Cu^2+]	showed inhibitory effects	Competitive	163 µM	Ki [3]: 49 ± 9 µM
[Co+2] [Co^2+]	–	Competitive	446 µM	–
[Pb+2] [Pb^2+]	did not show any impact	–	–	–
[Fe+3] [Fe^3+]	did not show any impact	–	–	–
[Zn+2] [Zn^2+]	showed inhibitory effects	–	–	–
